The text below walks through data of patent US5296604A, “Proline derivatives and compositions for their use as inhibitors of HIV protease” (priority 1992, dated 1994).

Where two headings read alike, the source gives them in different places.

For this assay, the target named is T1, HIV protease (Human immunodeficiency virus type 1 group M subtype B, UniProt P03366).
T1 construct: the predicted size of the protease is 99 amino acids
The experiment in a line: HIV protease inhibition, fluorometric RP-HPLC assay with N-dansyl-peptide substrate. It counts as biochemical. To be noted: for HIV Protease IC50 values of tested Examples (estimated): *Estimated IC50 from the observed inhibition at 10 μM concentration; for IC50 (estimated): estimated from the % inhibition at 10000 nM final; for inhibitory potency (in words): comparison by stereochemistry (2S,3S versus 2R,3R) and by hexan-1-olyl versus hexanoate group; for activity relative to range necessary for therapeutic development: in words. On the procedure: Following synthesis, the preferred embodiment compounds were tested for HIV protease inhibition. For in vitro potency testing, the N terminus of substrate amino acid sequences were first dansylated. The amino acid sequences present in such N-dansyl-peptide substrates can include, but are not limited to native proteolytic cleavage site sequences for the HIV gag and pol polyproteins.
The prepared substrates were incubated with HIV protease and compounds of the present invention, under conditions in which the protease is catalytically active. […] Following incubation, aliquots of the incubate were analyzed with reverse phase high performance liquid chromatography (hereinafter "RP-HPLC"). Any uncoverted peptide substrate is resolved from peptide product(s) and then detected by an inline fluorescence monitor. The amount of product formed over a known time interval may then be used to calculate the activity of the enzyme under the specific assay conditions. The amount of fluorescence detected in the eluted peak from HPLC can be related to the amount of peptide in the peak by prior HPLC analysis of standardized samples. The amount of peptide in the pure, standardized samples is determined accurately by amino acid analysis.
Inhibitory potency was assessed, in vitro, according to published procedures in Tamburini et al., 1990, "A Fluorometric Assay for HIV-Protease Activity Using High-Performance Liquid Chromatography", Analytical Biochemistry, 186:363.
HIV-protease was pre-incubated with or without the inhibitor compound at 37° C. and under buffer, ionic strength and pH conditions affording optimal protease activity. An N-dansyl-peptide substrate was then added to the incubation mixture. For example the dansylated substrate could be:
N-Dansyl-Ser-Gln-Asn-Tyr-Pro-Ile-Val (SEQ ID NO: 1)
The incubation mixture was then incubated at 37° C. During the incubation, the substrate is cleaved by the protease at the Tyr-Pro peptide bond to yield N-Dansyl-Ser-Gln-Asn-Tyr (SEQ ID NO: 2). At the end of the incubation (40 min) the reaction was terminated by acidification with TFA, and the amounts of unconverted substrate and fluorescent product were detected and quantified by subsequent RP-HPLC analysis with post column fluorescence detection.
The rate of cleavage of the substrate is quantified from the amount of product formed in the known incubation time. Specific assay conditions were as follows:
Incubations (75 ul) containing the complete system without substrate were preincubated at 37° C. for 15 min prior to initiation of the protease reaction by the addition of 25 ul of stock 400 uM substrtate peptide solution. The initial component concentrations at the start of the reaction were: HIV-protease (20 ul of a dilution sufficient to produce 40 to 60% substrate cleavage in 40 min), dimethyl sulphoxide (5%v/v), N-Dansyl-Ser-Gln-Asn-Tyr- […] (SEQ ID NO: 1) (100 uM), and sodium chloride (3 M) in 150 mM mes buffer pH 6.0. After a further incubation time of 40 min at 37° C. reactions were terminated by the addition of 50 ul of 12% (v/v) tri-flouroacetic acid, and then loaded into the HPLC autosampler for analysis.
Inhibitors were added to the incubation mixtures […] to protease addition before the preincubation, as stock solutions in dimethyl suphoxide, lower concentrations of inhibitor were obtained by serial dilution of the incubation mixture containing the highest inhibitor concentration. The range of inhibitor concentrations were designed to cover the range yielding zero to 100% inhibition of protease activity. Dilution of the HIV-protease activity (so as to achieve an amount of enzyme activity in 20 ul to produce 40 to 60% substrate conversion when added to the incubation) was achieved using the following buffer: 50 mM sodium acetate buffer pH 5.2, 50 mM sodium chloride, 20 mM DL-dithiothreitol, 20% (v/v) glycerol, 0.1% (v/v) triton X-100 and 1.5 M urea. […]

Where [1] appears, read: Table I, NI = no inhibition at 10 μM final concentration, 37 °C, 40 min, pH 6.0, read-out: HIV Protease IC50 values of tested Examples.
The mark [2] stands for this setting: Table II, titrated (Dixon plot, inhibitor up to 100-10000 nM), NI = no inhibition (tested at 10000 nM), read-out: IC50 (concentration in the assay incubation which inhibits the HIV protease activity by 50%).

In the case of `CC[C@H](C)[C@H](NC(=O)[C@@H]1CCCN1[C@H](C(=O)OC)[C@H](CC(C)C)NC(=O)OCc1ccccc1)C(=O)NCc1ccccc1` [Example 7, (2S, 3S) N-[methyl 2-(3-carbobenzyloxyamino-5-methyl-hexanoyl)]-Prolyl-Isoleucine N-Benzyl amide], the IC50 was more than 10 µM under setting [1] and more than 10 µM under setting [2].
`CC[C@H](C)[C@H](NC(=O)[C@@H]1CCCN1[C@H](C(=O)OC)[C@H](CC(C)C)NC(=O)[C@H](CC(N)=O)NC(=O)c1ccc2ccccc2n1)C(=O)NCc1ccccc1` [Example 14]: the “HIV Protease IC50 values of tested Examples (estimated)” value (“HIV Protease IC50 values” for short) (Table I) was more than 50 µM. Moreover, for the setting “Table II”, the “IC50 (estimated)” value was more than 50 µM.
For `CC[C@H](C)[C@H](NC(=O)[C@@H]1CCCN1[C@H](C(=O)OC)[C@H](CC(C)C)NC(=O)[C@H](CC#N)NC(=O)OCc1ccccc1)C(=O)NCc1ccccc1` [Example 11a], the IC50 was more than 10 µM under setting [1] and more than 10 µM under setting [2].
In the case of `CC[C@H](C)[C@H](NC(=O)[C@@H]1CCCN1[C@H](C(=O)OC)[C@H](CC(C)C)NC(=O)[C@H](CC(N)=O)NC(=O)OCc1ccccc1)C(=O)NCc1ccccc1` [Example 11b], for the setting “Table I”, the “HIV Protease IC50 values” value is 15 µM. In addition, the “IC50 (estimated)” value (Table II) is 15 µM.
For the compound `CC[C@H](C)[C@H](NC(=O)[C@@H]1CCCN1[C@@H](C(=O)OC)[C@@H](CC(C)C)NC(=O)OCc1ccccc1)C(=O)NCc1ccccc1` [Example 8], the IC50 under setting [1] is more than 10 µM and the IC50 under setting [2] was more than 10 µM.
Turning to `CC[C@H](C)[C@H](NC(=O)[C@@H]1CCCN1[C@H](CO)[C@H](CC(C)C)NC(=O)OCc1ccccc1)C(=O)NCc1ccccc1` [Example 9, (2S, 3S) N-[2-(3-carbobenzyoxyamino-5-methylhexan-1-olyl)]-Prolyl-Isoleucine N-Benzyl amide], the “inhibitory potency (in words)” value was “significant inhibitor potency”. Further, the IC50 under setting [1] was found to be 1.9 µM.
Take `CC[C@H](C)[C@H](NC(=O)[C@@H]1CCCN1[C@@H](CO)[C@@H](CC(C)C)NC(=O)OCc1ccccc1)C(=O)NCc1ccccc1` [Example 10]: the “inhibitory potency (in words)” value is given as “innactive or poorly active”. Besides, the IC50 under setting [1] is more than 10 µM. Under setting [2], the IC50 is more than 10 µM.
As for `CC[C@H](C)[C@H](NC(=O)[C@@H]1CCCN1[C@@H](C(=O)OC)[C@@H](CC(C)C)NC(=O)[C@H](CC(N)=O)NC(=O)c1ccc2ccccc2n1)C(=O)NCc1ccccc1` [Example 16, (2R, 3R) N-[2 (3-(N-guinaldyl-asparaginyl)amino-5-methyl-hexanoate)]-Prolyl-Isoleucine N-Benzyl amide], the IC50 is more than 10 µM under setting [1] and more than 10 µM under setting [2].
With `CC[C@H](C)[C@H](NC(=O)[C@@H]1CCCN1[C@H](CO)[C@H](CC(C)C)NC(=O)[C@H](CC(N)=O)NC(=O)OCc1ccccc1)C(=O)NCc1ccccc1` [Example 12, (2S, 3S) N-[2-(3-(N-carbobenzyloxy-asparaginyl)amino-5-methylhexan-1-olyl)]-Prolyl-Isoleucine N-Benzyl amide], the “inhibitory potency (in words)” value is given as “significant inhibitor potency” and the “activity relative to range necessary for therapeutic development” value was “within the range necessary for therapeutic development”. In addition, the “increase in inhibitory potency by additional Asn residue” value (Example 12 versus Example 9) turned out to be 152 fold. Under setting [1], the IC50 is 0.125 µM.
For the compound `CC[C@H](C)[C@H](NC(=O)[C@@H]1CCCN1[C@@H](CO)[C@@H](CC(C)C)NC(=O)[C@H](CC(N)=O)NC(=O)c1ccc2ccccc2n1)C(=O)NCc1ccccc1` [Example 17, (2R, 3R) N-[2-(3-(N-guinaldyl-asparaginyl)amino-5-methylhexan-1-olyl)]-Prolyl-Isoleucine N-Benzyl amide], the “inhibitory potency (in words)” value is “innactive or poorly active”. Also, the “HIV Protease IC50 values” value (Table I) is 15 µM. Moreover, the “IC50 (estimated)” value (Table II) was 15 µM.
As for `CC[C@H](C)[C@H](NC(=O)[C@@H]1CCCN1[C@H](CO)[C@H](CC(C)C)NC(=O)[C@H](CC(N)=O)NC(=O)c1ccc2ccccc2n1)C(=O)NCc1ccccc1` [Example 15], the “inhibitory potency (in words)” value is “significant inhibitor potency” and the “activity relative to range necessary for therapeutic development” value is listed as “within the range necessary for therapeutic development”. Moreover, for the setting “Example 15 versus Example 12”, the “increase in inhibitory potency by N-quinaldehyde in place of N-carbo-benzyloxy” value is recorded as 3.6 fold. For the same compound, the IC50 under setting [1] came out at 0.035 µM.
